Results published in patent US8802597B2, “Herbicidal pyrimidines” (E I du Pont de Nemours and Company, priority 2003, dated 2014).

Columns and labels:
Assay in all cases: Test C pre/postemergence
Format in all cases: in vivo
[1] = system: morningglory (Ipomoea coccinea); conditions: Ipomoea, pre-emergence, Preemergence, read-out: Plant response rating, Morningglory
Procedure, shortened: (§1)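 We sprayed seeded pots preemergence and 2–18 cm seedlings postemergence with test chemicals in a non-phytotoxic solvent mixture including surfactant. Greenhouse plants were visually compared with untreated controls at 12 to 14 days and scored 0 (no effect) to 100 (complete control).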

[2] = system: velvetleaf (Abutilon theophrasti); conditions: Abutilon theophrasti, pre-emergence, Preemergence, read-out: Plant response rating, Velvetleaf
Procedure, shortened: as §1

[3] = system: goosegrass (Eleusine indica); conditions: Eleusine indica, pre-emergence, Preemergence, read-out: Plant response rating, Goosegrass
Procedure, shortened: as §1

[4] = system: bermudagrass (Cynodon dactylon); conditions: Cynodon dactylon, pre-emergence, Preemergence, read-out: Plant response rating, Bermudagrass
Procedure, shortened: as §1

[5] = system: lambsquarters (Chenopodium album); conditions: Chenopodium album, pre-emergence, Preemergence, read-out: Plant response rating, Lambsquarters
Procedure, shortened: as §1

[6] = system: eastern black nightshade (Solanum ptycanthum); conditions: Solanum, pre-emergence, Preemergence, read-out: Plant response rating, Nightshade
Procedure, shortened: as §1

[7] = system: Surinam grass (Brachiaria decumbens); conditions: Urochloa decumbens, pre-emergence, Preemergence, read-out: Plant response rating, Surinam Grass
Procedure, shortened: as §1

[8] = system: common ragweed (Ambrosia elatior); conditions: Ambrosia artemisiifolia, pre-emergence, Preemergence, read-out: Plant response rating, Ragweed
Procedure, shortened: as §1

[9] = system: giant foxtail (Setaria faberii); conditions: Setaria faberi, pre-emergence, Preemergence, read-out: Plant response rating, Foxtail, Giant
Procedure, shortened: as §1

soybean (Glycine max) = conditions: Glycine max, pre-emergence, Preemergence, read-out: Plant response rating, Soybean
Procedure, shortened: as §1

[10] = system: yellow nutsedge (Cyperus esculentus); conditions: Cyperus, pre-emergence, Preemergence, read-out: Plant response rating, Nutsedge, Yellow
Procedure, shortened: as §1

[11] = system: woolly cupgrass (Eriochloa villosa); conditions: Eriochloa villosa, pre-emergence, Preemergence, read-out: Plant response rating, Cupgrass, Woolly
Procedure, shortened: as §1

[12] = 62 g ai/ha, scale 0 to 100, 0 no effect, 100 complete control

## Nc1nc(C2CC2)nc(C=O)c1Br [Compound 26]
[1]; [12]
  pest or weed control at 62 g/ha: 0%
[1]; 125 g ai/ha, scale 0 to 100
  pest or weed control at 125 g/ha: 5%
[1]; 250 g ai/ha, scale 0 to 100
  pest or weed control at 250 g/ha: 85%
[1]; 500 g ai/ha, scale 0 to 100
  pest or weed control at 500 g/ha: 90%
[2]; [12]
  pest or weed control at 62 g/ha: 0%
[2]; 125 g ai/ha, scale 0 to 100
  pest or weed control at 125 g/ha: 10%
[2]; 250 g ai/ha, scale 0 to 100
  pest or weed control at 250 g/ha: 90%
[2]; 500 g ai/ha, scale 0 to 100
  pest or weed control at 500 g/ha: 90%
[3]; [12]
  pest or weed control at 62 g/ha: 0%
[3]; 125 g ai/ha, scale 0 to 100
  pest or weed control at 125 g/ha: 0%
[3]; 250 g ai/ha, scale 0 to 100
  pest or weed control at 250 g/ha: 0%
[3]; 500 g ai/ha, scale 0 to 100
  pest or weed control at 500 g/ha: 0%
[4]; [12]
  pest or weed control at 62 g/ha: 0%
[4]; 125 g ai/ha, scale 0 to 100
  pest or weed control at 125 g/ha: 0%
[4]; 250 g ai/ha, scale 0 to 100
  pest or weed control at 250 g/ha: 0%
[4]; 500 g ai/ha, scale 0 to 100
  pest or weed control at 500 g/ha: 0%
[5]; [12]
  pest or weed control at 62 g/ha: 10%
[5]; 500 g ai/ha, scale 0 to 100
  pest or weed control at 500 g/ha: 90%
[6]; [12]
  pest or weed control at 62 g/ha: 10%
[6]; 125 g ai/ha, scale 0 to 100
  pest or weed control at 125 g/ha: 100%
[6]; 250 g ai/ha, scale 0 to 100
  pest or weed control at 250 g/ha: 100%
[6]; 500 g ai/ha, scale 0 to 100
  pest or weed control at 500 g/ha: 100%
[7]; [12]
  pest or weed control at 62 g/ha: 0%
[7]; 125 g ai/ha, scale 0 to 100
  pest or weed control at 125 g/ha: 0%
[7]; 250 g ai/ha, scale 0 to 100
  pest or weed control at 250 g/ha: 10%
[7]; 500 g ai/ha, scale 0 to 100
  pest or weed control at 500 g/ha: 10%
[8]; [12]
  pest or weed control at 62 g/ha: 0%
[8]; 125 g ai/ha, scale 0 to 100
  pest or weed control at 125 g/ha: 10%
[8]; 250 g ai/ha, scale 0 to 100
  pest or weed control at 250 g/ha: 85%
[8]; 500 g ai/ha, scale 0 to 100
  pest or weed control at 500 g/ha: 90%
[9]; [12]
  pest or weed control at 62 g/ha: 0%
[9]; 125 g ai/ha, scale 0 to 100
  pest or weed control at 125 g/ha: 0%
[9]; 250 g ai/ha, scale 0 to 100
  pest or weed control at 250 g/ha: 0%
[9]; 500 g ai/ha, scale 0 to 100
  pest or weed control at 500 g/ha: 10%
Soybean (Glycine max); [12]
  plant injury at 62 g/ha: 0%
Soybean (Glycine max); 125 g ai/ha, scale 0 to 100
  plant injury at 125 g/ha: 10%
Soybean (Glycine max); 250 g ai/ha, scale 0 to 100
  plant injury at 250 g/ha: 10%
Soybean (Glycine max); 500 g ai/ha, scale 0 to 100
  plant injury at 500 g/ha: 20%
[10]; [12]
  pest or weed control at 62 g/ha: 0%
[10]; 125 g ai/ha, scale 0 to 100
  pest or weed control at 125 g/ha: 0%
[10]; 250 g ai/ha, scale 0 to 100
  pest or weed control at 250 g/ha: 0%
[10]; 500 g ai/ha, scale 0 to 100
  pest or weed control at 500 g/ha: 0%
[11]; [12]
  pest or weed control at 62 g/ha: 0%
[11]; 125 g ai/ha, scale 0 to 100
  pest or weed control at 125 g/ha: 0%
[11]; 250 g ai/ha, scale 0 to 100
  pest or weed control at 250 g/ha: 0%
[11]; 500 g ai/ha, scale 0 to 100
  pest or weed control at 500 g/ha: 0%
